Results: article PMC10620772, “Design, synthesis, and biological evaluation of new pyrimidine-5-carbonitrile derivatives as novel anti-cancer, dual EGFR^WT/COX-2 inhibitors with docking studies” (RSC Advances, 2023)

Experiments:
NCI-H460 = test: NCI60 antitumor screening; type: cell-based, human; details: Homo sapiens; 10 μM single dose; NCI-H460 (non-small cell lung cancer); read-out: growth inhibition percent (GI%)
MOLT-4 = test: NCI60 antitumor screening; type: cell-based, human; details: Homo sapiens; 10 μM single dose; MOLT-4 (leukaemia); read-out: growth inhibition percent (GI%)
K-562 = test: NCI60 antitumor screening; type: cell-based, human; details: Homo sapiens; 10 μM single dose; (leukaemia); read-out: growth inhibition percent (GI%)
OVCAR-3 = test: NCI60 antitumor screening; type: cell-based, human; details: Homo sapiens; 10 μM single dose; OVCAR-3 (ovarian cancer); read-out: growth inhibition percent (GI%)
SF-539 = test: NCI60 antitumor screening; type: cell-based, human; details: Homo sapiens; 10 μM single dose; SF-539 (CNS cancer); read-out: growth inhibition percent (GI%)
A498 = test: NCI60 antitumor screening; type: cell-based, human; details: Homo sapiens; 10 μM single dose; A498 (renal cancer); read-out: growth inhibition percent (GI%)
HT29 = test: NCI60 antitumor screening; type: cell-based, human; details: Homo sapiens, HT-29; 10 μM single dose; HT29 (colon cancer); read-out: growth inhibition percent (GI%)
MDA-MB-231/ATCC = test: NCI60 antitumor screening; type: cell-based, human; details: Homo sapiens; 10 μM single dose; MDA-MB-231/ATCC (breast cancer); read-out: growth inhibition percent (GI%)
MDA-MB-435 = test: NCI60 antitumor screening; type: cell-based, human; details: Homo sapiens; 10 μM single dose; MDA-MB-435 (melanoma); read-out: growth inhibition percent (GI%)
BT-549 = test: NCI60 antitumor screening; type: cell-based, human; details: Homo sapiens; 10 μM single dose; BT-549 (breast cancer); read-out: growth inhibition percent (GI%)
LOX IMVI = test: NCI60 antitumor screening; type: cell-based, human; details: Homo sapiens; 10 μM single dose; LOX IMVI (melanoma); read-out: growth inhibition percent (GI%)
HL-60(TB) = test: NCI60 antitumor screening; type: cell-based, human; details: Homo sapiens; 10 μM single dose; HL-60(TB) (leukaemia); read-out: growth inhibition percent (GI%)
HCT-116 = test: NCI60 antitumor screening; type: cell-based, human; details: Homo sapiens; 10 μM single dose; HCT-116 (colon cancer); read-out: growth inhibition percent (GI%)
SR = test: NCI60 antitumor screening; type: cell-based, human; details: Homo sapiens; 10 μM single dose; SR (leukaemia); read-out: growth inhibition percent (GI%)
OVCAR-4 = test: NCI60 antitumor screening; type: cell-based, human; details: Homo sapiens; 10 μM single dose; OVCAR-4 (ovarian cancer); read-out: growth inhibition percent (GI%)
U251 = test: NCI60 antitumor screening; type: cell-based, human; details: Homo sapiens, U-251; 10 μM single dose; U251 (CNS cancer); read-out: growth inhibition percent (GI%)
A549/ATCC = test: NCI60 antitumor screening; type: cell-based, human; details: Homo sapiens; 10 μM single dose; A549/ATCC (non-small cell lung cancer); read-out: growth inhibition percent (GI%)
PC-3 = test: NCI60 antitumor screening; type: cell-based, human; details: Homo sapiens; 10 μM single dose; PC-3 (prostate cancer); read-out: growth inhibition percent (GI%)
NCI/ADR-RES = test: NCI60 antitumor screening; type: cell-based, human; details: Homo sapiens; 10 μM single dose; NCI/ADR-RES (ovarian cancer); read-out: growth inhibition percent (GI%)
CCRF-CEM = test: NCI60 antitumor screening; type: cell-based, human; details: Homo sapiens; 10 μM single dose; CCRF-CEM (leukaemia); read-out: growth inhibition percent (GI%)
MDA-MB-468 = test: NCI60 antitumor screening; type: cell-based, human; details: Homo sapiens; 10 μM single dose; MDA-MB-468 (breast cancer); read-out: growth inhibition percent (GI%)
786–0 = test: NCI60 antitumor screening; type: cell-based, human; details: Homo sapiens; 10 μM single dose; 786–0 (renal cancer); read-out: growth inhibition percent (GI%)
SK-MEL-5 = test: NCI60 antitumor screening; type: cell-based, human; details: Homo sapiens; 10 μM single dose; SK-MEL-5 (melanoma); read-out: growth inhibition percent (GI%)
M14 = test: NCI60 antitumor screening; type: cell-based, human; details: Homo sapiens; 10 μM single dose; M14 (melanoma); read-out: growth inhibition percent (GI%)
SF-295 = test: NCI60 antitumor screening; type: cell-based, human; details: Homo sapiens; 10 μM single dose; SF-295 (CNS cancer); read-out: growth inhibition percent (GI%)
SF-268 = test: NCI60 antitumor screening; type: cell-based, human; details: Homo sapiens; 10 μM single dose; SF-268 (CNS cancer); read-out: growth inhibition percent (GI%)
SK-MEL-28 = test: NCI60 antitumor screening; type: cell-based, human; details: Homo sapiens; 10 μM single dose; SK-MEL-28 (melanoma); read-out: growth inhibition percent (GI%)

Molecule `N#Cc1c(-c2ccc(F)cc2)nc(SCc2ccccc2)nc1N1CCN(c2ccccc2)CC1` [4m, 2-(Benzylthio)-4-(4-fluorophenyl)-6-(4-phenylpiperazin-1-yl) pyrimidine-5-carbonitrile] has an inhibition at 10 µM (NCI-H460) of less than 10%, an inhibition at 10 µM (MOLT-4) of less than 10% and an inhibition at 10 µM (K-562) of 10.6%. It also gave an inhibition at 10 µM (OVCAR-3) of less than 10%, an inhibition at 10 µM (SF-539) of less than 10% and an inhibition at 10 µM (A498) of less than 10%. The inhibition at 10 µM (HT29) was less than 10%, the inhibition at 10 µM (MDA-MB-231/ATCC) was less than 10% and the inhibition at 10 µM (MDA-MB-435) was less than 10%. It also gave an inhibition at 10 µM (BT-549) of less than 10%, an inhibition at 10 µM (LOX IMVI) of less than 10% and an inhibition at 10 µM (HL-60(TB)) of less than 10%. For the same molecule, the inhibition at 10 µM (HCT-116) was less than 10%, the inhibition at 10 µM (SR) was less than 10% and the inhibition at 10 µM (OVCAR-4) was less than 10%. The inhibition at 10 µM (U251) was less than 10%, the melting point was 165 to 167 °C and the inhibition at 10 µM (A549/ATCC) was less than 10%. For the same molecule, the inhibition at 10 µM (PC-3) was less than 10%, the inhibition at 10 µM (NCI/ADR-RES) was less than 10% and the inhibition at 10 µM (CCRF-CEM) was 11.1%. For the same molecule, the inhibition at 10 µM (MDA-MB-468) was less than 10%, the inhibition at 10 µM (786–0) was less than 10% and the inhibition at 10 µM (SK-MEL-5) was less than 10%. For the same molecule, the inhibition at 10 µM (M14) was less than 10%, the inhibition at 10 µM (SF-295) was less than 10% and the inhibition at 10 µM (SF-268) was less than 10%. It also gave an inhibition at 10 µM (SK-MEL-28) of less than 10%.
